Holding throughout (assay type): physicochemical
The nature of data set [1]: Solubility: maximum amount dissolved in 1 liter of water. Particulars: 25° C. On the procedure:
Each of β-alanyl-L-glutamine, L-alanyl-L-glutamine (control) and L-glutamine (control) was dissolved into 1 liter of water (25° C.). Each of their maximum amounts dissolved in the water was determined.

The nature of data set [2]: Heat stability: residual rate after heat sterilization in an autoclave. Particulars: aqueous 10 mM solution, pH 6.5, autoclave 120° C. On the procedure:
Each of aqueous 10 mM solutions of β-alanyl-L-glutamine, L-alanyl-L-glutamine (control) and L-glutamine (control) adjusted at pH 6.5 with sodium hydroxide was heated in an autoclave at 120° C. for a period of 20 minutes or 120 minutes. The residual rate of each of the compounds after heating was determined.

Test in data set [3]: as above
The settings on record: aqueous 10 mM solution, pH 6.5, autoclave 120° C., 20 minutes.

These results are taken from patent US5432160A, “Nutrient composition” (Kyowa Hakko Kohyo Co., Ltd., priority 1993, dated 1995).

Peptide text beside a SMILES is read from it.

Consider `C[C@H](N)C(=O)N[C@@H](CCC(N)=O)C(=O)O` [L-Alanyl-L-glutamine, L-alanyl-L-glutamine] (H-Ala-Gln-OH), for which, in data set [1], the “Amount Dissolved in 1 liter of Water” value was found to be 599 g. Besides, in data set [2], the “Residual Rate after Heat Sterilization 20 min.” value stood at 98% and the “Residual Rate after Heat Sterilization 120 min.” value is reported as 91%. In addition, the “Residual Rate after Heat Sterilization 20 min.” value in data set [2] (listed as L-alanyl-L-glutamine) is listed as “partly decomposed”.

For `NC(=O)CC[C@H](N)C(=O)O` [L-Glutamine, L-glutamine], the “Share decomposed after heating” value in data set [3] is listed as “about 90%”. In addition, the “Amount Dissolved in 1 liter of Water” value in data set [1] turned out to be 43 g. Also, in data set [2], the “Residual Rate after Heat Sterilization 20 min.” value was found to be 9% and the “Residual Rate after Heat Sterilization 120 min.” value is 0%. For the same compound, the “Residual Rate after Heat Sterilization 120 min.” value in data set [2] (listed as L-glutamine) is given as “decomposed completely”.

As for `NCCC(=O)N[C@@H](CCC(N)=O)C(=O)O` [β-Alanyl-L-glutamine, β-alanyl-L-glutamine], the “Amount Dissolved in 1 liter of Water” value in data set [1] is 952 g; in data set [1] (listed as β-alanyl-L-glutamine), “highest solubility”. Besides, the “Residual Rate after Heat Sterilization 20 min.” value in data set [2] is recorded as 100%; in data set [2] (listed as β-alanyl-L-glutamine), “remained entirely without being decomposed”. Also, the “Residual Rate after Heat Sterilization 120 min.” value in data set [2] was found to be 99%.
